From patent US8993574B2, “Pyrrole antifungal agents” (F2G Ltd, priority 2008, dated 2015) come the findings set out here.

In brackets after ≈: the same amount, converted by molar mass.

Common to all, as to format: cell-based
Test [1] concerns Aspergillus flavus. The test can be described thus: MIC, YAG medium. The following applies: Aspergillus flavus, 24 h, 24 h at 35° C, MIC banded into grades, read-out: MIC grade, A. flavus. The method, boiled down:
(§1)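 Spores from 5-day Sabouraud agar cultures were suspended in YAG medium (1% glucose, 1% ammonium chloride, 0.5% yeast extract) at final inocula of 1−2×10^4 cfu/mL against doubling dilutions of compound (50-0.05 mg/L; 0.5-0.0005 mg/L on repeat). Plates were incubated 24 h at 35° C. MIC was the lowest concentration giving >70% growth inhibition by OD485 versus drug-free control.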

Test [2] concerns Aspergillus terreus AT49. As to the kind of experiment: MIC, YAG medium. The following applies: Aspergillus terreus, 24 h at 35° C, MIC banded into grades, read-out: MIC grade, A. terreus 49. Summed up: as §1
The subject of test [3] is Aspergillus niger. As to the kind of experiment: MIC, YAG medium. The note with it: Aspergillus niger, 24 h at 35° C, MIC banded into grades, read-out: MIC grade, A. niger. The method, boiled down: as §1
Test [4] has as its system Aspergillus terreus AT4. The test can be described thus: MIC, YAG medium. The note with it: Aspergillus terreus, 24 h at 35° C, MIC banded into grades, read-out: MIC grade, A. terreus. Summed up: as §1
The test system of test [5] is Aspergillus fumigatus AF293. The test can be described thus: MIC, YAG medium. The following applies: Aspergillus fumigatus, 24 h at 35° C, MIC banded into grades, read-out: MIC grade, A. fumigatus. The method, boiled down:
as §1

Test [6] concerns Aspergillus fumigatus AF210. The test can be described thus: MIC, YAG medium. The following applies: Aspergillus fumigatus, 24 h at 35° C, MIC banded into grades, read-out: MIC grade, A. fumigatus 210. Summed up: as §1
The subject of test [7] is Aspergillus flavus. As to the kind of experiment: MIC, RPMI medium. The following applies: Aspergillus flavus, MIC banded into grades, read-out: MIC grade, A. flavus. The method, boiled down:
(§2)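 Broth microdilution in RPMI with 2% glucose, 0.135 M MOPS pH 7.0; compounds as doubling dilutions, 50-0.05 mg/L, inoculum 1−2×10^4 cfu/mL. Incubated 24-48 h at 35° C; growth by OD 485 nm. MIC is lowest concentration giving >80% growth inhibition versus drug-free control.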

Test [8] relates to Aspergillus terreus AT49. As to the kind of experiment: MIC, RPMI medium. The following applies: Aspergillus terreus, AT49, MIC banded into grades, read-out: MIC grade, A. terreus 49. The method, boiled down: as §2
Test [9] has as its system Aspergillus niger. As to the kind of experiment: MIC, RPMI medium. The note with it: Aspergillus niger, MIC banded into grades, read-out: MIC grade, A. niger. The method, boiled down: as §2
Test [10] relates to Aspergillus terreus AT4. As to the kind of experiment: MIC, RPMI medium. The following applies: Aspergillus terreus, AT4, MIC banded into grades, read-out: MIC grade, A. terreus. Summed up: as §2
Test [11] relates to Aspergillus fumigatus AF293. The test can be described thus: MIC, RPMI medium. The following applies: Aspergillus fumigatus, AF293, MIC banded into grades, read-out: MIC grade, A. fumigatus. The method, boiled down: as §2
Test [12] has as its system Aspergillus fumigatus AF210. The test can be described thus: MIC, RPMI medium. The following applies: Aspergillus fumigatus, AF210, MIC banded into grades, read-out: MIC grade, A. fumigatus 210. Summed up:
as §2

As a reminder, the MIC is the smallest concentration in the dilution series that meets the test's criterion for growth inhibition.

As for `Cc1cc(C)nc(N2CCN(c3ccc(NC(=O)C(=O)c4c(-c5ccccc5)cc5n4CCOC5)cc3)CC2)c1` [Example 7, N-{4-[4-(4,6-Dimethyl-pyridin-2-yl)-piperazin-1-yl]-phenyl}-2-oxo-2-(7-phenyl-3,4-dihydro-1H-pyrrolo[2,1-c][1,4]oxazin-6-yl)-acetamide], the MIC (in the test on Aspergillus flavus [1]; in the test with Aspergillus terreus AT49 [2]; in the test with Aspergillus niger [3]; with Aspergillus terreus AT4 [4]; in test [5]; in test [6]) was less than 1 µg/mL each time. Moreover, the MIC (in the test on Aspergillus flavus [7]; in the test on Aspergillus terreus AT49 [8]; with Aspergillus niger [9]; in the test with Aspergillus terreus AT4 [10]; in [11]; in test [12]) was less than 1 µg/mL each time.

`Cc1cc(C)nc(N2CCN(c3ccc(NC(=O)C(=O)c4c(-c5ccccc5)c(F)c(C)n4C)cc3)CC2)c1` [Example 90, N-{4-[4-(4,6-Dimethyl-pyridin-2-yl)-piperazin-1-yl]-phenyl}-2-(4-fluoro-1,5-dimethyl-3-phenyl-1H-pyrrol-2-yl)-2-oxo-acetamide]: the MIC (in the test with Aspergillus flavus [1]; with Aspergillus terreus AT49 [2]; in the test with Aspergillus niger [3]; with Aspergillus terreus AT4 [4]; in test [5]; in test [6]) was less than 1 µg/mL in each case. In addition, the minimal inhibitory concentration (MIC) (in the test with Aspergillus flavus [7]; with Aspergillus terreus AT49 [8]; in the test with Aspergillus niger [9]; in the test with Aspergillus terreus AT4 [10]; in test [11]; in test [12]) was less than 1 µg/mL in each case.

In the case of `Cc1cc(-c2ccccc2)c(C(=O)C(=O)Nc2cccc3c(N4CCN(C)CC4)cccc23)n1C` [Example 49, 2-(1,5-Dimethyl-3-phenyl-1H-pyrrol-2-yl)-N-[5-(4-methyl-piperazin-1-yl)-naphthalen-1-yl]-2-oxo-acetamide], the MIC was less than 1 µg/mL with Aspergillus flavus [1]; less than 1 µg/mL in the test on Aspergillus terreus AT49 [2]; greater than 10 µg/mL with Aspergillus niger [3]; greater than 10 µg/mL in the test with Aspergillus terreus AT4 [4]; 1 to 10 µg/mL (≈ 2.14 to 21.4 µM) in [5]; 1 to 10 µg/mL (≈ 2.14 to 21.4 µM) in [6]. In addition, the minimal inhibitory concentration (MIC) in the test with Aspergillus flavus [7] is 1 to 10 µg/mL (≈ 2.14 to 21.4 µM); in the test on Aspergillus terreus AT49 [8], 1 to 10 µg/mL (≈ 2.14 to 21.4 µM); with Aspergillus niger [9], greater than 10 µg/mL; in the test with Aspergillus terreus AT4 [10], 1 to 10 µg/mL (≈ 2.14 to 21.4 µM); in test [11] it was 1 to 10 µg/mL (≈ 2.14 to 21.4 µM); in [12], greater than 10 µg/mL.

Turning to `COCCn1cc(-c2ccccc2Cl)cc1C(=O)C(=O)Nc1ccc(N2CCN(c3cc(C)cc(C)n3)CC2)cc1` [Example 58, 2-[4-(2-Chloro-phenyl)-1-(2-methoxy-ethyl)-1H-pyrrol-2-yl]-N-{4-[4-(4,6-dimethyl-pyridin-2-yl)-piperazin-1-yl]-phenyl}-2-oxo-acetamide], the MIC in the test on Aspergillus flavus [1] is 1 to 10 µg/mL (≈ 1.75 to 17.5 µM); with Aspergillus terreus AT49 [2] it was 1 to 10 µg/mL (≈ 1.75 to 17.5 µM); in the test with Aspergillus niger [3], greater than 10 µg/mL; with Aspergillus terreus AT4 [4], 1 to 10 µg/mL (≈ 1.75 to 17.5 µM); in test [5], 1 to 10 µg/mL (≈ 1.75 to 17.5 µM); in test [6], 1 to 10 µg/mL (≈ 1.75 to 17.5 µM). In addition, the MIC (in the test with Aspergillus flavus [7]; in the test with Aspergillus terreus AT49 [8]; in the test on Aspergillus niger [9]; with Aspergillus terreus AT4 [10]; in test [11]; in test [12]) was greater than 10 µg/mL throughout.

Turning to `Cc1cc(C)nc(N2CCN(c3ccc(NC(=O)C(=O)c4c(-c5ccccc5)cc(C)n4Cc4ccncc4)cc3)CC2)c1` [Example 102, N-{4-[4-(4,6-Dimethyl-pyridin-2-yl)-piperazin-1-yl]-phenyl}-2-(5-methyl-3-phenyl-1-pyridin-4-ylmethyl-1H-pyrrol-2-yl)-2-oxo-acetamide], the MIC in the test with Aspergillus flavus [1] is greater than 10 µg/mL; with Aspergillus terreus AT49 [2], greater than 10 µg/mL; in the test with Aspergillus niger [3], greater than 10 µg/mL; with Aspergillus terreus AT4 [4] it was greater than 10 µg/mL; in test [5], 1 to 10 µg/mL (≈ 1.71 to 17.1 µM); in [6] it was greater than 10 µg/mL. In addition, the MIC (in the test with Aspergillus flavus [7]; in the test on Aspergillus terreus AT49 [8]; with Aspergillus niger [9]; in the test on Aspergillus terreus AT4 [10]; in test [11]; in test [12]) was greater than 10 µg/mL each time.
